In data set [1] the test system is Avena fatua. Nature of the data set: Herbicidal activity against Avena fatua assessed as inhibition of root length after 5 days relative to control. The format is functional, organism-based. The following applies: 120 h.
For data set [2], the system named is Triticum aestivum. Kind of data set: Phytotoxicity against Triticum aestivum (wheat) assessed as inhibition of seed germination at 10 uM to 1 mM after 5 days relative to control. The format is organism-based. The following applies: in vivo, 120 h.
The nature of data set [3]: Selectivity idex, ratio of IC50 for root elongation in Triticum aestivum to IC50 for root elongation in Avena fatua.
For data set [4], the system named is Avena fatua. Kind of data set: Herbicidal activity against Avena fatua assessed as inhibition of shoot length at 0.05 uM to 1 mM after 5 days relative to control. The format is functional, organism-based.
Data set [5] in a line: Selectivity idex, ratio of IC50 for root elongation in Oryza sativa to IC50 for root elongation in Echinochloa crus-galli.
For data set [6], the system named is Echinochloa crus-galli. Nature of the data set: Herbicidal activity against Echinochloa crus-galli (barnyard grass) assessed as inhibition of seed germination at 0.05 uM to 1 mM after 5 days relative to control. The format is functional, organism-based.
Data set [7] deals with Echinochloa crus-galli. Kind of data set: Herbicidal activity against Echinochloa crus-galli (barnyard grass) assessed as inhibition of shoot length at 0.05 uM to 1 mM after 5 days relative to control. The format is functional, organism-based.
The subject of data set [8] is Oryza sativa. Nature of the data set: Phytotoxicity against Oryza sativa (rice) assessed as inhibition of seed germination at 10 uM to 1 mM after 7 days relative to control. The format is organism-based. The following applies: in vivo, 168 h.
Data set [9] has as its system Oryza sativa. Nature of the data set: Phytotoxicity against Oryza sativa (rice) assessed as inhibition of root elongation after 7 days relative to control. Type of data set: organism-based. The following applies: 168 h.
Data set [10] has as its system Triticum aestivum. Nature of the data set: Phytotoxicity against Triticum aestivum (wheat) assessed as inhibition of root elongation after 5 days relative to control. The following applies: 120 h. The format is organism-based.
A short description of data set [11]: Phytotoxicity against Triticum aestivum (wheat) assessed as inhibition of root elongation at 114 uM after 5 days relative to control. Type of data set: organism-based. The following applies: in vivo.
In data set [12] the test system is Echinochloa crus-galli. Kind of data set: Herbicidal activity against Echinochloa crus-galli (barnyard grass) assessed as inhibition of root length after 5 days relative to control. Type of data set: functional, organism-based. The following applies: 120 h.
Data set [13] has as its system Avena fatua. Kind of data set: Herbicidal activity against Avena fatua assessed as inhibition of root elongation at 114 uM after 5 days relative to control. The format is functional. The following applies: 120 h.
Data set [14] relates to Avena fatua. Nature of the data set: Herbicidal activity against Avena fatua assessed as inhibition of seed germination at 0.05 uM to 1 mM after 5 days relative to control. Type of data set: functional, organism-based.
Data set [15] in a line: Phytotoxicity against Triticum aestivum (wheat) assessed as inhibition of root elongation at 6 uM after 5 days relative to control. Type of data set: organism-based. The settings on record: in vivo.
For data set [16], the system named is Avena fatua. Kind of data set: Herbicidal activity against Avena fatua assessed as inhibition of root elongation at 6 uM after 5 days relative to control. Type of data set: functional. The following applies: 120 h.
In data set [17] the test system is Echinochloa crus-galli. Kind of data set: Ratio of Contanil IC50 to compound IC50 for root elongation in Echinochloa crus-galli (barnyard grass). Type of data set: functional.
Data set [18] in a line: Phytotoxicity against Oryza sativa (rice) assessed as inhibition of root elongation at 52 uM after 7 days relative to control. The following applies: in vivo. The format is organism-based.
The subject of data set [19] is Echinochloa crus-galli. Kind of data set: Herbicidal activity against Echinochloa crus-galli (barnyard grass) assessed as inhibition of root elongation at 52 uM after 5 days relative to control. The format is functional. The following applies: 120 h.

Structures are written as SMILES. Calls of active or inactive are those of the source. No cut-off for these calls is given here.

The IC50 is the point on the concentration scale where inhibition reaches its midpoint. As usually defined, the inhibition is the change of the read-out against control, counted positive when it falls.

For the molecule `CCCCC(=O)ON1C(=O)COc2c(Cl)cccc21`, the IC50 with Avena fatua [1] came out at 114 µM; with Oryza sativa [9], 712 µM; in the data set with Triticum aestivum [10] it was 1640 µM; in the data set with Echinochloa crus-galli [12] it was 64 µM. For the same molecule, the Activity entry in the data set on Triticum aestivum [2] and with Oryza sativa [8] was “Non-toxic” throughout. The Ratio IC50 in [3] amounted to 14.4; in data set [5], 11.1. Besides, the inhibition result in the data set on Avena fatua [4], in the data set on Echinochloa crus-galli [6], in the data set with Echinochloa crus-galli [7] and with Avena fatua [14] was “Active” throughout. Besides, the inhibition at 120 h, 114 µM in data set [11] worked out at 18%. In the data set on Avena fatua [13], the inhibition at 114 µM came to 70%.

In the case of `CCC(=O)ON1C(=O)COc2ccc(F)cc21` [6F-4Pr-D-DIBOA], the IC50 is 6.22 µM in the data set with Avena fatua [1], 3 µM in the data set with Oryza sativa [9], 81.9 µM with Triticum aestivum [10] and 9 µM with Echinochloa crus-galli [12]. Moreover, the Activity entry in the data set on Triticum aestivum [2] and in the data set with Oryza sativa [8] was “Non-toxic” throughout. Moreover, the inhibition at 120 h, 6 µM in data set [15] was 25%. In addition, the Ratio IC50 in data set [3] came out at 13.2; in [5], 0.36; in the data set with Echinochloa crus-galli [17] it was 12. Besides, the inhibition at 6 µM in the data set on Avena fatua [16] was found to be 70%. The inhibition entry in the data set on Avena fatua [4], in the data set on Echinochloa crus-galli [6], in the data set on Echinochloa crus-galli [7] and in the data set on Avena fatua [14] was “Active” throughout.

On to `CCC(=O)ON1C(=O)COc2c(Cl)cccc21` [8-Cl-4-Pr-D-DIBOA], for which the IC50 with Avena fatua [1] was 321 µM; with Oryza sativa [9], 859 µM; with Triticum aestivum [10], 1300 µM; in the data set with Echinochloa crus-galli [12], 52 µM. Besides, the Activity result in the data set with Triticum aestivum [2] and in the data set with Oryza sativa [8] was “Non-toxic” throughout. Besides, the Ratio IC50 stood at 4.06 in data set [3] and 16.6 in [5]. Also, the inhibition entry in the data set with Avena fatua [4], in the data set on Echinochloa crus-galli [6], with Echinochloa crus-galli [7] and in the data set on Avena fatua [14] was “Active” each time. For the same molecule, the inhibition at 168 h, 52 µM in data set [18] stood at 8%. In the data set on Echinochloa crus-galli [19], the inhibition at 52 µM stood at 70%.
